Laboratory results: publication PMC10350184, “Nullomer peptide increases immune cell infiltration and reduces tumor metabolism in triple negative breast cancer mouse model” (Research Square, 2023)

Tested on: 4T1.2-Luc TNBC tumors
Assay: 4T1.2-Luc orthotopic TNBC mouse model, unilateral tumor: tumor volume, tumor weight and body weight
Format: in vivo, female BALB/c mice
Conditions: trehalose IP
Excerpt: The model was created by orthotopically injecting 4T1.2-Luc cells in the 4th mammary fat pad of Balb/c mice, with 1×10^5 cells per mouse. The cell line was developed by Dr. Cheryl Jorcyk and it expresses luciferase gene which serves as a luminescent indicator of gene expression or tumorigenesis, making the tumor cell traceable in vivo. Treatment started after the formation of palpable tumors and was detected by in vivo BLI (IVIS, Perkin Elmer) followed by randomization of the animals per group. For evaluating the effect of the peptides on this model, we carried out two separate studies. The first pilot study involved a set of 4 mice per group with bilateral mammary tumors, which received six IP administration of PBS, 9S1R-NulloPT drug at 50 mg/kg, 100 mg/Kg body weight or Trehalose, over a period of 2 weeks. The present study includes a set of 7–9 mice per group with unilateral tumors including the same groups as previous, but received a total of eight injections per mouse over a period of 2 weeks. […]
Mice were anesthetized by isoflurane followed by measurement of the tumor length and width using a manual Vernier caliper. This was performed before every drug administration and the tumor volume was calculated using the formula (length × width^2)/2. Body weights were also measured before every dose of the drug.

OC[C@H]1O[C@H](O[C@H]2O[C@H](CO)[C@@H](O)[C@H](O)[C@H]2O)[C@H](O)[C@@H](O)[C@@H]1O [Trehalose]
post mortem tumor size, trehalose only group: no significant change
